# Tests used:
# [1] = Cellular toxicity in Huh7-CMV-Luc replicon assay; type: cell-based; details: human, Huh7-CMV-Luc cells, three days incubation, Luc activity; read-out: CC50 (μM) (Huh-7)
# Method: Cellular toxicity was determined in the Huh7-CMV-Luc replicon assay. Replicon cells (2500 cells/well), stably transformed with a luciferase reporter gene under control of the cytomegalovirus (CMV) constitutive promotor, were cultured in the presence or absence of test compound concentrations. After three days of incubation at 37° C. in a humidified 5% CO2 atmosphere, cell proliferation was quantified by measuring the Luc activity, and expressed as CC50 values (cytotoxicity, 50% inhibitory concentration of cell growth). Tests were performed in 384-well plates.
# [2] = Cellular toxicity in the HIV cell-line (MT-4); type: cell-based, human; details: human
# Method: (§1) Compounds of the invention were tested for their potency against wild type human immunodeficiency virus (HIV). Antiviral activity was evaluated using a cellular assay performed according to the following procedure. The human T-cell line MT4 was engineered with Green Fluorescent Protein (GFP) and a HIV-specific promoter, HIV-1 long terminal repeat (LTR). This cell line, designated MT4 LTR-EGFP, can be used for the in vitro evaluation of anti-HIV activity of investigational compounds. In HIV-1 infected cells, the Tat protein is produced, which upregulates the LTR promotor and eventually leads to stimulation of the GFP reporter production, allowing to measure ongoing HIV-infection fluorometrically. Effective concentration values such as 50% effective concentration (EC50) can be determined and are usually expressed in μM. An EC50 value is defined as the concentration of test compound that reduces the fluorescence of HIV-infected cells by 50%. Monitoring of HIV-1 infection was done using a scanning microscope. Image analysis allows very sensitive detection of viral infection. Measurements were done before cell necrosis, which usually takes place about five days after infection, in particular measurements were performed three days after infection. The column IIIB in the table list the EC50 values against the wild type strain IIIB.
# Also the HIV activity is given (EC50 HIV (μM)) and the cellular toxicity in the HIV cell-line (CC50 (μM) (MT-4)).
# [3] = tested on: HCV replicon (Huh-7 luc/neo, NS3-NS5B of HCV type 1b); experiment: HCV replicon assay (Huh-Luc, luciferase readout); type: cell-based; details: Huh-Luc cells, HCV type 1b replicon, three days incubation, luciferase activity
# Text: The compounds of formula I were examined for activity in the inhibition of HCV RNA replication in a cellular assay aimed at identifying compounds that inhibit a HCV functional cellular replicating cell line, also known as HCV replicons. The cellular assay was based on a bicistronic expression construct, as described by Lohmann et al. (1999), Science vol. 285 pp. 110-113 with modifications described by Krieger et al. (2001), Journal of Virology 75: 4614-4624, in a multi-target screening strategy.
# The assay utilized the stably transfected cell line Huh-7 luc/neo (hereafter referred to as Huh-Luc). This cell line harbors an RNA encoding a bicistronic expression construct comprising the wild type NS3-NS5B regions of HCV type 1b translated from an Internal Ribosome Entry Site (IRES) from encephalomyocarditis virus (EMCV), preceded by a reporter portion (FfL-luciferase), and a selectable marker portion (neoR, neomycine phosphotransferase). The construct is bordered by 5′ and 3′ NTRs (non-translated regions) from HCV type 1b. Continued culture of the replicon cells in the presence of G418 (neo^R) is dependent on the replication of the HCV RNA. The stably transfected replicon cells that express HCV RNA, which replicates autonomously and to high levels, encoding inter alia luciferase, were used for screening the antiviral compounds.
# The replicon cells were plated in 384 well plates in the presence of the test and control compounds which were added in various concentrations. Following an incubation of three days, HCV replication was measured by assaying luciferase activity (using standard luciferase assay substrates and reagents and a Perkin Elmer ViewLux™ ultraHTS microplate imager). Replicon cells in the control cultures have high luciferase expression in the absence of any inhibitor. The inhibitory activity of the compound on luciferase activity was monitored on the Huh-Luc cells, enabling a dose-response curve for each test compound. EC50 values were then calculated, which value represents the amount of the compound required to decrease the level of detected luciferase activity by 50%, or more specifically, the ability of the genetically linked HCV replicon RNA to replicate.
# [4] = tested on: wild type human immunodeficiency virus (HIV) strain IIIB; experiment: HIV assay in MT4 LTR-EGFP cells; type: cell-based, HIV-1; details: Human immunodeficiency virus 1, IIIB, 72 h, three days after infection
# Method: as §1
SMILES,CC50 at 3 days [1],CC50 [2],"EC50 ([3]; Hepatitis C virus, Huh-7, 72 h)",EC50 [4],EC50 [3]
CCOC(=O)[C@H](C)NP(=O)(OC[C@H]1O[C@@H](n2ccc(=O)[nH]c2=O)C2(CC2)[C@@H]1O)Oc1ccc(Cl)cc1 (stereo partly shown) [Compound 8],> 98 µM,> 98 µM,5.9 µM,> 98 µM,–
CCOC(=O)C1(NP(=O)(OC[C@H]2O[C@@H](n3ccc(=O)[nH]c3=O)C3(CC3)[C@@H]2O)Oc2ccc(Cl)cc2)CCC1 (stereo partly shown) [Compound 26],> 98 µM,> 98 µM,73.7 µM,> 98 µM,–
C[C@H](NP(=O)(OC[C@H]1O[C@@H](n2ccc(=O)[nH]c2=O)C2(CC2)[C@@H]1O)Oc1ccc(C(C)(C)C)cc1)C(=O)OCc1ccccc1 (stereo partly shown) [Compound 19],> 32 µM,> 32 µM,7.2 µM,> 32 µM,–
CCOC(=O)[C@H](Cc1ccccc1)NP(=O)(OC[C@H]1O[C@@H](n2ccc(=O)[nH]c2=O)C2(CC2)[C@@H]1O)Oc1ccccc1 (stereo partly shown) [Compound 17],> 98 µM,> 98 µM,4.4 µM,> 98 µM,–
CC(C)OC(=O)C(C)(C)NP(=O)(OC[C@H]1O[C@@H](n2ccc(=O)[nH]c2=O)C2(CC2)[C@@H]1O)Oc1ccccc1 (stereo partly shown) [Compound 28],> 98 µM,> 98 µM,> 98 µM,> 98 µM,–
CCOC(=O)[C@H](C)NP(=O)(OC[C@H]1O[C@@H](n2ccc(=O)[nH]c2=O)C2(CC2)[C@@H]1O)Oc1ccccc1 (stereo partly shown) [Compound 5],> 98 µM,> 98 µM,9.2 µM,> 90 µM,–
CC(C)COC(=O)[C@H](C)NP(=O)(OC[C@H]1O[C@@H](n2ccc(=O)[nH]c2=O)C2(CC2)[C@@H]1O)Oc1ccccc1 (stereo partly shown) [Compound 13],> 98 µM,> 98 µM,3.2 µM,> 98 µM,–
CCC(C)OC(=O)[C@H](C)NP(=O)(OC[C@H]1O[C@@H](n2ccc(=O)[nH]c2=O)C2(CC2)[C@@H]1O)Oc1ccccc1 (stereo partly shown) [Compound 24],> 98 µM,> 98 µM,12.4 µM,> 98 µM,–
"C[C@H](NP(=O)(OC[C@H]1O[C@@H](n2ccc(=O)[nH]c2=O)C2(CC2)[C@@H]1O)Oc1ccc(Cl)cc1)C(=O)OCc1ccccc1 (single isomer, unassigned) [Compound 7a]",58.4 µM,> 50 µM,–,> 60 µM,10.9 µM
C[C@H](NP(=O)(OC[C@H]1O[C@@H](n2ccc(=O)[nH]c2=O)C2(CC2)[C@@H]1O)Oc1ccc2[nH]ccc2c1)C(=O)OCc1ccccc1 (stereo partly shown) [Compound 20],> 32 µM,> 98 µM,7.6 µM,> 98 µM,–
C[C@H](NP(=O)(OC[C@H]1O[C@@H](n2ccc(=O)[nH]c2=O)C2(CC2)[C@@H]1O)Oc1cccc2ccccc12)C(=O)OCc1ccccc1 (stereo partly shown) [Compound 1],> 98 µM,> 32 µM,2.8 µM,> 50 µM,–
CCCCCCCCOC(=O)[C@H](C)NP(=O)(OC[C@H]1O[C@@H](n2ccc(=O)[nH]c2=O)C2(CC2)[C@@H]1O)Oc1ccc(Cl)cc1 (stereo partly shown) [Compound 23],> 32 µM,> 30 µM,11.2 µM,> 98 µM,–
CCOC(=O)C1(NP(=O)(OC[C@H]2O[C@@H](n3ccc(=O)[nH]c3=O)C3(CC3)[C@@H]2O)Oc2ccc(Cl)cc2)CC1 (stereo partly shown) [Compound 33],> 98 µM,> 98 µM,> 98 µM,> 98 µM,–
C[C@H](NP(=O)(OC[C@H]1O[C@@H](n2ccc(=O)[nH]c2=O)C2(CC2)[C@@H]1O)Oc1ccc2c(ccn2C(=O)OC(C)(C)C)c1)C(=O)OCc1ccccc1 (stereo partly shown) [Compound 16],> 32 µM,> 32 µM,4.2 µM,> 98 µM,–
C=CCCCCOC(=O)[C@H](C)NP(=O)(OC[C@H]1O[C@@H](n2ccc(=O)[nH]c2=O)C2(CC2)[C@@H]1O)Oc1ccc(CC=C)cc1OC (stereo partly shown) [Compound 18],> 98 µM,> 64 µM,5.1 µM,> 98 µM,–
CC[C@H](NP(=O)(OC[C@H]1O[C@@H](n2ccc(=O)[nH]c2=O)C2(CC2)[C@@H]1O)Oc1ccccc1)C(=O)OCc1ccccc1 (stereo partly shown) [Compound 21],> 98 µM,> 80 µM,7.8 µM,> 98 µM,–
CCCCOC(=O)[C@H](C)NP(=O)(OC[C@H]1O[C@@H](n2ccc(=O)[nH]c2=O)C2(CC2)[C@@H]1O)Oc1ccccc1 (stereo partly shown) [Compound 12],> 98 µM,> 98 µM,3.1 µM,> 98 µM,–
Cc1ccc(C(C)C)cc1OP(=O)(N[C@@H](C)C(=O)OCc1ccccc1)OC[C@H]1O[C@@H](n2ccc(=O)[nH]c2=O)C2(CC2)[C@@H]1O (stereo partly shown) [Compound 25],> 32 µM,23 µM,23.1 µM,> 98 µM,–
C[C@H](NP(=O)(OC[C@H]1O[C@@H](n2ccc(=O)[nH]c2=O)C2(CC2)[C@@H]1O)Oc1ccccc1)C(=O)OCC(C)(C)C (stereo partly shown) [Compound 11],> 98 µM,> 98 µM,2.8 µM,> 98 µM,–
CCOC(=O)C1(NP(=O)(OC[C@H]2O[C@@H](n3ccc(=O)[nH]c3=O)C3(CC3)[C@@H]2O)Oc2ccccc2)CC1 (stereo partly shown) [Compound 29],> 98 µM,> 98 µM,> 98 µM,> 98 µM,–
C[C@H](NP(=O)(OC[C@H]1O[C@@H](n2ccc(=O)[nH]c2=O)C2(CC2)[C@@H]1O)Oc1ccccc1)C(=O)OC(C)(C)C (stereo partly shown) [Compound 30],> 98 µM,> 98 µM,> 98 µM,> 98 µM,–
COC(=O)C(C)(C)NP(=O)(OC[C@H]1O[C@@H](n2ccc(=O)[nH]c2=O)C2(CC2)[C@@H]1O)Oc1ccccc1 (stereo partly shown) [Compound 27],> 98 µM,> 98 µM,91.4 µM,> 98 µM,–

# Reference: US8399429B2, “Uracyl cyclopropyl nucleotides” (Janssen Products, LP, priority 2008, dated 2013)
